In patent US8927500B2, “Peptidomimetic macrocycles” (Aileron Therapeutics, Inc., priority 2012, dated 2015):
Where a SMILES comes first, the peptide text is derived from it. Bridges are numbered along the chain shown (N, C = ends). [ ]: non-standard residue; d: D form. R8 = C=CCCCCCC[C@@](C)(N)C(=O)O; Cba = N[C@@H](CC1CCC1)C(=O)O; S5 = C=CCCC[C@](C)(N)C(=O)O; Nle = CCCC[C@H](N)C(=O)O

Key:
[1] = molecular target: T1, MDMX (Homo sapiens, UniProt O15151); assay: Competitive fluorescence polarization assay for MDMX; format: binding; settings: competitive FP assay; for IC50: read-out: IC50 (MDMX); for Ki: read-out: Ki (MDMX)
T1 sequence (O15151 1-125): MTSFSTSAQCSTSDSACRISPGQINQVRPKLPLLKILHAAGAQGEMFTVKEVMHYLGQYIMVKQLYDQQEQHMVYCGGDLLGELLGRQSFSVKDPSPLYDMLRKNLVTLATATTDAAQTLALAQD

[2] = molecular target: MDM2 (Homo sapiens, UniProt Q00987); assay: Competitive fluorescence polarization assay for MDM2; format: binding; settings: competitive FP assay, MDM2; for IC50: read-out: IC50 (MDM2); for Ki: read-out: Ki (MDM2)
MDM2, sequence (Q00987 1-125): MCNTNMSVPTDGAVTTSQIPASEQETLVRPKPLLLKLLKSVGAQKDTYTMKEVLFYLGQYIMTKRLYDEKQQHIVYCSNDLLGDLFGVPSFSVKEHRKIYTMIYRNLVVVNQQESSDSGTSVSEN

IC50 [1] [nM] | Ki [1] [nM] | IC50 [2] [nM] | Ki [2] [nM] | Compound
100 to 1000 | 10 to 100 | < 10 | < 10 | CC(=O)N[C@@H](CC(C)C)C(=O)N[C@H](C(=O)N[C@@H](Cc1ccccc1)C(=O)N[C@]1(C)CCCCCCC=CCCC[C@@](C)(C(=O)N[C@@H](CO)C(=O)N[C@@H](CO)C(=O)N[C@H](C)C(N)=O)NC(=O)[C@H](CC(C)C)NC(=O)[C@H](CCC(N)=O)NC(=O)[C@H](C)NC(=O)[C@H](Cc2c[nH]c3ccccc23)NC(=O)[C@H](Cc2ccc(O)cc2)NC(=O)[C@H](C(C)C)NC1=O)[C@@H](C)O [compound 133] (Ac-LTF[R8]VYWAQL[S5]SS[dA]-NH2; staple 4-11)
100 to 1000 | 10 to 100 | < 10 | < 10 | CC(=O)N[C@@H](CCC(=O)O)C(=O)N[C@H](C(=O)N[C@@H](Cc1ccccc1)C(=O)N[C@]1(C)CCCCCCC=CCCC[C@@](C)(C(=O)N[C@@H](CO)C(=O)N[C@@H](CO)C(=O)N[C@H](C)C(N)=O)NC(=O)[C@H](CC(C)C)NC(=O)[C@H](CCC(N)=O)NC(=O)[C@H](C)NC(=O)[C@H](Cc2c[nH]c3ccccc23)NC(=O)[C@H](Cc2ccc(O)cc2)NC(=O)[C@H](C(C)C)NC1=O)[C@@H](C)O [compound 134] (Ac-ETF[R8]VYWAQL[S5]SS[dA]-NH2; staple 4-11)
100 to 1000 | 10 to 100 | < 10 | < 10 | CC(=O)N[C@@H](CC(C)C)C(=O)N[C@H](C(=O)N[C@@H](Cc1ccccc1)C(=O)N[C@]1(C)CCCCCCC=CCCC[C@@](C)(C(=O)N[C@@H](CO)C(=O)N[C@@H](CC(N)=O)C(=O)N[C@H](C)C(N)=O)NC(=O)[C@H](CC(C)C)NC(=O)[C@H](CCC(N)=O)NC(=O)[C@H](C)NC(=O)[C@H](Cc2c[nH]c3ccccc23)NC(=O)[C@H](Cc2ccc(O)cc2)NC(=O)[C@H](C(C)C)NC1=O)[C@@H](C)O [compound 135] (Ac-LTF[R8]VYWAQL[S5]SN[dA]-NH2; staple 4-11)
100 to 1000 | 10 to 100 | 10 to 100 | < 10 | CC[C@H](C)[C@H](NC(=O)[C@H](C)NC(=O)[C@H](C)NC(=O)[C@]1(C)CCCC=CCCCCCC[C@@](C)(NC(=O)[C@H](Cc2ccccc2)NC(=O)[C@@H](NC(=O)[C@H](CC(C)C)NC(C)=O)[C@@H](C)O)C(=O)N[C@@H](C)C(=O)N[C@@H](CCC(=O)O)C(=O)N[C@@H](Cc2c[nH]c3ccccc23)C(=O)N[C@@H](C)C(=O)N[C@@H](CCC(N)=O)C(=O)N[C@@H](CC(C)C)C(=O)N1)C(=O)N[C@H](C)C(N)=O [compound 180] (Ac-LTF[R8]AEWAQL[S5]AAI[dA]-NH2; staple 4-11)
100 to 1000 | 10 to 100 | < 10 | < 10 | CC[C@H](C)[C@H](NC(=O)[C@H](Cc1c[nH]cn1)NC(=O)[C@H](C)NC(=O)[C@]1(C)CCCC=CCCCCCC[C@@](C)(NC(=O)[C@H](Cc2ccccc2)NC(=O)[C@@H](NC(=O)[C@H](CC(C)C)NC(C)=O)[C@@H](C)O)C(=O)N[C@@H](C)C(=O)N[C@@H](Cc2c[nH]cn2)C(=O)N[C@@H](Cc2c[nH]c3ccccc23)C(=O)N[C@@H](C)C(=O)N[C@@H](CCC(N)=O)C(=O)N[C@@H](CC(C)C)C(=O)N1)C(=O)N[C@H](C)C(N)=O [compound 207] (Ac-LTF[R8]AHWAQL[S5]AHI[dA]-NH2; staple 4-11)
100 to 1000 | 10 to 100 | 10 to 100 | < 10 | CCCC[C@H](NC(=O)[C@H](C)NC(=O)[C@H](C)NC(=O)[C@]1(C)CCCC=CCCCCCC[C@@](C)(NC(=O)[C@H](Cc2ccccc2)NC(=O)[C@@H](NC(=O)[C@H](CC(C)C)NC(C)=O)[C@@H](C)O)C(=O)N[C@@H](C)C(=O)N[C@@H](Cc2ccc(O)cc2)C(=O)N[C@@H](Cc2c[nH]c3ccccc23)C(=O)N[C@@H](C)C(=O)N[C@@H](CCC(N)=O)C(=O)N[C@@H](CC2CCC2)C(=O)N1)C(=O)N[C@@H](C)C(N)=O [compound 236] (Ac-LTF[R8]AYWAQ[Cba][S5]AA[Nle]A-NH2; staple 4-11)

The remaining lines, values behind:

Compound | IC50 [1] [nM] | Ki [1] [nM] | IC50 [2] [nM] | Ki [2] [nM]
CC(=O)N[C@@H](CCC(=O)O)C(=O)N[C@H](C(=O)N[C@@H](Cc1ccccc1)C(=O)N[C@]1(C)CCCCCCC=CCCC[C@@](C)(C(=O)N[C@@H](CO)C(=O)N[C@@H](Cc2c[nH]c3ccccc23)C(=O)N[C@@H](C)C(N)=O)NC(=O)[C@H](CC(C)C)NC(=O)[C@H](CCC(N)=O)NC(=O)[C@H](C)NC(=O)[C@H](Cc2c[nH]c3ccccc23)NC(=O)[C@H](Cc2ccc(O)cc2)NC(=O)[C@H](C(C)C)NC1=O)[C@@H](C)O [compound 128] (Ac-ETF[R8]VYWAQL[S5]SWA-NH2; staple 4-11) | 100 to 1000 | 10 to 100 | < 10 | < 10
CC(=O)N[C@@H](CCC(=O)O)C(=O)N[C@H](C(=O)N[C@@H](Cc1ccccc1)C(=O)N[C@]1(C)CCCCCCC=CCCC[C@@](C)(C(=O)N[C@@H](CO)C(=O)N[C@@H](Cc2c[nH]c3ccccc23)C(=O)N[C@@H](C)C(N)=O)NC(=O)[C@H](CC(C)C)NC(=O)[C@H](CCC(N)=O)NC(=O)[C@H](C)NC(=O)[C@H](Cc2c[nH]c3ccccc23)NC(=O)[C@H](Cc2ccc(O)cc2)NC(=O)[C@H](CCCCN)NC1=O)[C@@H](C)O [compound 129] (Ac-ETF[R8]KYWAQL[S5]SWA-NH2; staple 4-11) | 100 to 1000 | 10 to 100 | < 10 | < 10
CC(=O)N[C@@H](CCC(=O)O)C(=O)N[C@H](C(=O)N[C@@H](Cc1ccccc1)C(=O)N[C@]1(C)CCCCCCC=CCCC[C@@](C)(C(=O)N[C@@H](CO)C(=O)N[C@@H](CC(N)=O)C(=O)N[C@H](C)C(N)=O)NC(=O)[C@H](CC(C)C)NC(=O)[C@H](CCC(N)=O)NC(=O)[C@H](C)NC(=O)[C@H](Cc2c[nH]c3ccccc23)NC(=O)[C@H](Cc2ccc(O)cc2)NC(=O)[C@H](C(C)C)NC1=O)[C@@H](C)O [compound 136] (Ac-ETF[R8]VYWAQL[S5]SN[dA]-NH2; staple 4-11) | 100 to 1000 | 10 to 100 | < 10 | < 10
CC[C@H](C)[C@H](NC(C)=O)C(=O)N[C@H](C(=O)N[C@@H](Cc1ccccc1)C(=O)N[C@]1(C)CCCCCCC=CCCC[C@@](C)(C(=O)N[C@@H](C)C(=O)N[C@@H](CCC(=O)O)C(=O)N[C@@H](Cc2ccccc2)C(=O)N[C@@H](C)C(N)=O)NC(=O)[C@H](CC(C)C)NC(=O)[C@H](CCC(N)=O)NC(=O)[C@H](C)NC(=O)[C@H](Cc2c[nH]c3ccccc23)NC(=O)[C@H](Cc2c[nH]cn2)NC(=O)[C@H](Cc2ccccc2)NC1=O)[C@@H](C)O [compound 186] (Ac-ITF[R8]FHWAQL[S5]AEFA-NH2; staple 4-11) | 100 to 1000 | 10 to 100 | 10 to 100 | < 10
CC[C@H](C)[C@H](NC(C)=O)C(=O)N[C@H](C(=O)N[C@@H](Cc1ccccc1)C(=O)N[C@]1(C)CCCCCCC=CCCC[C@@](C)(C(=O)N[C@@H](C)C(=O)N[C@@H](Cc2c[nH]cn2)C(=O)N[C@@H](Cc2ccccc2)C(=O)N[C@@H](C)C(N)=O)NC(=O)[C@H](CC(C)C)NC(=O)[C@H](CCC(N)=O)NC(=O)[C@H](C(C)C)NC(=O)[C@H](Cc2c[nH]c3ccccc23)NC(=O)[C@H](Cc2ccc(O)cc2)NC(=O)[C@H](CCC(=O)O)NC1=O)[C@@H](C)O [compound 192] (Ac-ITF[R8]EYWVQL[S5]AHFA-NH2; staple 4-11) | 100 to 1000 | 10 to 100 | 10 to 100 | < 10
CCCC[C@H](NC(=O)[C@H](Cc1c[nH]c2ccccc12)NC(=O)[C@H](C)NC(=O)[C@]1(C)CCCC=CCCCCCC[C@@](C)(NC(=O)[C@H](Cc2ccccc2)NC(=O)[C@@H](NC(=O)[C@H](CC(C)C)NC(C)=O)[C@@H](C)O)C(=O)N[C@@H](C)C(=O)N[C@@H](Cc2ccc(O)cc2)C(=O)N[C@@H](Cc2c[nH]c3ccccc23)C(=O)N[C@@H](C)C(=O)N[C@@H](CCC(N)=O)C(=O)N[C@@H](CC2CCC2)C(=O)N1)C(=O)N[C@@H](C)C(N)=O [compound 239] (Ac-LTF[R8]AYWAQ[Cba][S5]AW[Nle]A-NH2; staple 4-11) | 100 to 1000 | 10 to 100 | 10 to 100 | 10 to 100
CCCC[C@H](NC(=O)[C@H](Cc1c[nH]c2ccccc12)NC(=O)[C@H](C)NC(=O)[C@]1(C)CCCC=CCCCCCC[C@@](C)(NC(=O)[C@H](Cc2ccccc2)NC(=O)[C@@H](NC(=O)[C@H](CCC(=O)O)NC(C)=O)[C@@H](C)O)C(=O)N[C@@H](C)C(=O)N[C@@H](Cc2ccc(O)cc2)C(=O)N[C@@H](Cc2c[nH]c3ccccc23)C(=O)N[C@@H](C)C(=O)N[C@@H](CCC(N)=O)C(=O)N[C@@H](CC2CCC2)C(=O)N1)C(=O)N[C@@H](C)C(N)=O [compound 240] (Ac-ETF[R8]AYWAQ[Cba][S5]AW[Nle]A-NH2; staple 4-11) | 100 to 1000 | 10 to 100 | 10 to 100 | < 10
CCCC[C@H](NC(=O)[C@H](Cc1c[nH]c2ccccc12)NC(=O)[C@H](C)NC(=O)[C@]1(C)CCCC=CCCCCCC[C@@](C)(NC(=O)[C@H](Cc2ccccc2)NC(=O)[C@@H](NC(=O)[C@H](CC(C)C)NC(C)=O)[C@@H](C)O)C(=O)N[C@@H](CCC(=O)O)C(=O)N[C@@H](Cc2ccc(O)cc2)C(=O)N[C@@H](Cc2c[nH]c3ccccc23)C(=O)N[C@@H](C)C(=O)N[C@@H](CCC(N)=O)C(=O)N[C@@H](CC2CCC2)C(=O)N1)C(=O)N[C@@H](C)C(N)=O [compound 241] (Ac-LTF[R8]EYWAQ[Cba][S5]AW[Nle]A-NH2; staple 4-11) | 100 to 1000 | 10 to 100 | 10 to 100 | < 10
CCCC[C@H](NC(=O)[C@H](C)NC(=O)[C@H](CO)NC(=O)[C@]1(C)CCCC=CCCCCCC[C@@](C)(NC(=O)[C@H](Cc2ccccc2)NC(=O)[C@@H](NC(=O)[C@H](CC(C)C)NC(C)=O)[C@@H](C)O)C(=O)N[C@@H](CCC(=O)O)C(=O)N[C@@H](Cc2ccc(O)cc2)C(=O)N[C@@H](Cc2c[nH]c3ccccc23)C(=O)N[C@@H](Cc2c[nH]c3ccccc23)C(=O)N[C@@H](CCC(N)=O)C(=O)N[C@@H](CC2CCC2)C(=O)N1)C(=O)N[C@@H](C)C(N)=O [compound 246] (Ac-LTF[R8]EYWWQ[Cba][S5]SA[Nle]A-NH2; staple 4-11) | 100 to 1000 | 10 to 100 | 10 to 100 | < 10
